What was measured:
S. pneumoniae D39V [1] = assay: fitness (endpoint OD595 vs no drug) (fraction); higher = more growth
Outline: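 Cultures at OD595 0.01 were dispensed into 384-well plates in TSB, LB Lennox or CY and incubated at 37 °C. Every 30 min for 14 h, OD595 was read and corrected by the first reading. Fitness is the optical density at entry into stationary phase relative to the robust mean of no-drug control wells, capped at 1.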

B. subtilis 168 = assay: Bliss interaction score (quartile over a dose matrix) (fitness difference); higher = more antagonism (negative = synergy)
Outline: (§1)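 The Bliss score is observed minus expected fitness, where expected fitness is the product of the single-drug fitness values inferred from the combination data. Fitness is the OD595 at the onset of stationary phase over the plate's robust no-drug mean, capped at 1. Scores are summarised by quartiles over technical, biological and donor/recipient replicates.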

S. aureus DSM 20231 = assay: as above
Outline: as §1

S. pneumoniae D39V [2] = assay: as above
Outline: as §1

S. aureus Newman = assay: as above
Outline: as §1
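Wherever Bliss interaction score (quartile over a dose matrix) is given: first quartile when negative (synergy) and third quartile when positive (antagonism).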

## CO/N=C(\C(=O)N[C@@H]1C(=O)N2C(C(=O)[O-])=C(C[N+]3(C)CCCC3)CS[C@H]12)c1csc(N)n1 [Cefepime] + CO[C@H]1/C=C/O[C@@]2(C)Oc3c(C)c(O)c4c(O)c(c(/C=N/N5CCN(C)CC5)c(O)c4c3C2=O)NC(=O)/C(C)=C\C=C\[C@H](C)[C@H](O)[C@@H](C)[C@@H](O)[C@@H](C)[C@H](OC(C)=O)[C@@H]1C [Rifampicin]
S. pneumoniae D39V [1]; first compound 0.007 µg/mL, partner 0.025 µg/mL
  fitness: ≥ 1
S. pneumoniae D39V [1]; first compound 0.007 µg/mL, partner 0.05 µg/mL
  fitness: ≥ 1
S. pneumoniae D39V [1]; first compound 0.007 µg/mL, partner 0.1 µg/mL
  fitness: 0.477
S. pneumoniae D39V [1]; first compound 0.0078 µg/mL, partner 0.025 µg/mL, one replicate
  fitness: 0.884
S. pneumoniae D39V [1]; first compound 0.0078 µg/mL, partner 0.2 µg/mL, one replicate
  fitness: 0
S. pneumoniae D39V [1]; first compound 0.014 µg/mL, partner 0.025 µg/mL
  fitness: 0.992
S. pneumoniae D39V [1]; first compound 0.014 µg/mL, partner 0.05 µg/mL
  fitness: 0.995
S. pneumoniae D39V [1]; first compound 0.014 µg/mL, partner 0.1 µg/mL
  fitness: 0.47
S. pneumoniae D39V [1]; first compound 0.0155 µg/mL, partner 0.025 µg/mL, one replicate
  fitness: 0.779
S. pneumoniae D39V [1]; first compound 0.0155 µg/mL, partner 0.1 µg/mL
  fitness: 0.325
S. pneumoniae D39V [1]; first compound 0.0155 µg/mL, partner 0.2 µg/mL, one replicate
  fitness: 0
S. pneumoniae D39V [1]; first compound 0.028 µg/mL, partner 0.025 µg/mL
  fitness: 0.93
S. pneumoniae D39V [1]; first compound 0.028 µg/mL, partner 0.05 µg/mL
  fitness: 0.936
S. pneumoniae D39V [1]; first compound 0.028 µg/mL, partner 0.1 µg/mL
  fitness: 0.222
S. pneumoniae D39V [1]; first compound 0.031 µg/mL, partner 0.025 µg/mL, one replicate
  fitness: 0.31
S. pneumoniae D39V [1]; first compound 0.031 µg/mL, partner 0.1 µg/mL
  fitness: 0.208
S. pneumoniae D39V [1]; first compound 0.031 µg/mL, partner 0.2 µg/mL, one replicate
  fitness: 0
B. subtilis 168
  Bliss interaction score: 0.118
S. aureus DSM 20231
  Bliss interaction score: 0.136
S. pneumoniae D39V [2]
  Bliss interaction score: 0.0513
S. aureus Newman
  Bliss interaction score: 0.035

## CO/N=C(\C(=O)N[C@@H]1C(=O)N2C(C(=O)[O-])=C(C[N+]3(C)CCCC3)CS[C@H]12)c1csc(N)n1 [Cefepime] + C[C@@H](O)[C@H]1C(=O)N2C(C(=O)O)=C(SCCNC=N)C[C@H]12 [Imipenem]
S. pneumoniae D39V [1]; first compound 0.007 µg/mL, partner 0.005 µg/mL
  fitness: 0.987
S. pneumoniae D39V [1]; first compound 0.007 µg/mL, partner 0.01 µg/mL
  fitness: 0.984
S. pneumoniae D39V [1]; first compound 0.007 µg/mL, partner 0.02 µg/mL
  fitness: 0.986
S. pneumoniae D39V [1]; first compound 0.0078 µg/mL, partner 0.0065 µg/mL
  fitness: 1
S. pneumoniae D39V [1]; first compound 0.0078 µg/mL, partner 0.013 µg/mL
  fitness: ≥ 1
S. pneumoniae D39V [1]; first compound 0.0078 µg/mL, partner 0.026 µg/mL
  fitness: 0.995
S. pneumoniae D39V [1]; first compound 0.014 µg/mL, partner 0.005 µg/mL
  fitness: 0.979
S. pneumoniae D39V [1]; first compound 0.014 µg/mL, partner 0.01 µg/mL
  fitness: ≥ 1
S. pneumoniae D39V [1]; first compound 0.014 µg/mL, partner 0.02 µg/mL
  fitness: 0.991
S. pneumoniae D39V [1]; first compound 0.0155 µg/mL, partner 0.0065 µg/mL
  fitness: 0.971
S. pneumoniae D39V [1]; first compound 0.0155 µg/mL, partner 0.013 µg/mL
  fitness: 0.98
S. pneumoniae D39V [1]; first compound 0.0155 µg/mL, partner 0.026 µg/mL
  fitness: 0.915
S. pneumoniae D39V [1]; first compound 0.028 µg/mL, partner 0.005 µg/mL
  fitness: 0.92
S. pneumoniae D39V [1]; first compound 0.028 µg/mL, partner 0.01 µg/mL
  fitness: 0.902
S. pneumoniae D39V [1]; first compound 0.028 µg/mL, partner 0.02 µg/mL
  fitness: 0.881
S. pneumoniae D39V [1]; first compound 0.031 µg/mL, partner 0.0065 µg/mL
  fitness: 0.39
S. pneumoniae D39V [1]; first compound 0.031 µg/mL, partner 0.013 µg/mL
  fitness: 0.495
S. pneumoniae D39V [1]; first compound 0.031 µg/mL, partner 0.026 µg/mL
  fitness: 0.325
B. subtilis 168
  Bliss interaction score: -0.106
S. aureus DSM 20231
  Bliss interaction score: -0.0424
S. pneumoniae D39V [2]
  Bliss interaction score: 0.068
S. aureus Newman
  Bliss interaction score: 0.155

## CO/N=C(\C(=O)N[C@@H]1C(=O)N2C(C(=O)[O-])=C(C[N+]3(C)CCCC3)CS[C@H]12)c1csc(N)n1 [Cefepime] + C[C@H]1COc2c(N3CCN(C)CC3)c(F)cc3c(=O)c(C(=O)O)cn1c23 [Levofloxacin]
S. pneumoniae D39V [1]; first compound 0.007 µg/mL, partner 0.2 µg/mL
  fitness: 0.996
S. pneumoniae D39V [1]; first compound 0.007 µg/mL, partner 0.4 µg/mL
  fitness: 0.951
S. pneumoniae D39V [1]; first compound 0.007 µg/mL, partner 0.8 µg/mL
  fitness: 0.779
S. pneumoniae D39V [1]; first compound 0.0078 µg/mL, partner 0.1725 µg/mL
  fitness: 0.991
S. pneumoniae D39V [1]; first compound 0.0078 µg/mL, partner 0.345 µg/mL
  fitness: 0.937
S. pneumoniae D39V [1]; first compound 0.0078 µg/mL, partner 0.69 µg/mL
  fitness: 0.727
S. pneumoniae D39V [1]; first compound 0.014 µg/mL, partner 0.2 µg/mL
  fitness: 0.993
S. pneumoniae D39V [1]; first compound 0.014 µg/mL, partner 0.4 µg/mL
  fitness: 0.963
S. pneumoniae D39V [1]; first compound 0.014 µg/mL, partner 0.8 µg/mL
  fitness: 0.768
S. pneumoniae D39V [1]; first compound 0.0155 µg/mL, partner 0.1725 µg/mL
  fitness: 0.928
S. pneumoniae D39V [1]; first compound 0.0155 µg/mL, partner 0.345 µg/mL
  fitness: 0.924
S. pneumoniae D39V [1]; first compound 0.0155 µg/mL, partner 0.69 µg/mL
  fitness: 0.62
S. pneumoniae D39V [1]; first compound 0.028 µg/mL, partner 0.2 µg/mL
  fitness: 0.935
S. pneumoniae D39V [1]; first compound 0.028 µg/mL, partner 0.4 µg/mL
  fitness: 0.861
S. pneumoniae D39V [1]; first compound 0.028 µg/mL, partner 0.8 µg/mL
  fitness: 0.516
B. subtilis 168
  Bliss interaction score: 0.0275
S. aureus DSM 20231
  Bliss interaction score: 0.0646
S. pneumoniae D39V [2]
  Bliss interaction score: 0.157
S. aureus Newman
  Bliss interaction score: 0.0639

## CO/N=C(\C(=O)N[C@@H]1C(=O)N2C(C(=O)[O-])=C(C[N+]3(C)CCCC3)CS[C@H]12)c1csc(N)n1 [Cefepime] + Clc1ccc(COC(Cn2ccnc2)c2ccc(Cl)cc2Cl)c(Cl)c1 [Miconazole]
S. pneumoniae D39V [1]; first compound 0.007 µg/mL, partner 1.25 µg/mL
  fitness: 0.985
S. pneumoniae D39V [1]; first compound 0.007 µg/mL, partner 2.5 µg/mL
  fitness: 0.982
S. pneumoniae D39V [1]; first compound 0.007 µg/mL, partner 5 µg/mL
  fitness: 0.965
S. pneumoniae D39V [1]; first compound 0.0078 µg/mL, partner 1.073 µg/mL
  fitness: ≥ 1
S. pneumoniae D39V [1]; first compound 0.0078 µg/mL, partner 2.145 µg/mL
  fitness: ≥ 1
S. pneumoniae D39V [1]; first compound 0.0078 µg/mL, partner 4.29 µg/mL
  fitness: 0.948
S. pneumoniae D39V [1]; first compound 0.014 µg/mL, partner 1.25 µg/mL
  fitness: 0.934
S. pneumoniae D39V [1]; first compound 0.014 µg/mL, partner 2.5 µg/mL
  fitness: 0.969
S. pneumoniae D39V [1]; first compound 0.014 µg/mL, partner 5 µg/mL
  fitness: 0.943
S. pneumoniae D39V [1]; first compound 0.0155 µg/mL, partner 1.073 µg/mL
  fitness: 0.995
S. pneumoniae D39V [1]; first compound 0.0155 µg/mL, partner 2.145 µg/mL
  fitness: 0.851
S. pneumoniae D39V [1]; first compound 0.0155 µg/mL, partner 4.29 µg/mL
  fitness: 0.848
S. pneumoniae D39V [1]; first compound 0.028 µg/mL, partner 1.25 µg/mL
  fitness: 0.87
S. pneumoniae D39V [1]; first compound 0.028 µg/mL, partner 2.5 µg/mL
  fitness: 0.872
S. pneumoniae D39V [1]; first compound 0.028 µg/mL, partner 5 µg/mL
  fitness: 0.861
S. pneumoniae D39V [1]; first compound 0.031 µg/mL, partner 4.29 µg/mL
  fitness: 0.491
B. subtilis 168
  Bliss interaction score: 0.0393
S. aureus DSM 20231
  Bliss interaction score: -0.109
S. pneumoniae D39V [2]
  Bliss interaction score: 0.0753
S. aureus Newman
  Bliss interaction score: -0.0643

## CO/N=C(\C(=O)N[C@@H]1C(=O)N2C(C(=O)[O-])=C(C[N+]3(C)CCCC3)CS[C@H]12)c1csc(N)n1 [Cefepime] + O=C1CN(/N=C/c2ccc([N+](=O)[O-])o2)C(=O)N1 [Nitrofurantoin]
S. pneumoniae D39V [1]; first compound 0.007 µg/mL, partner 2 µg/mL
  fitness: 0.988
S. pneumoniae D39V [1]; first compound 0.007 µg/mL, partner 4 µg/mL
  fitness: 0.991
S. pneumoniae D39V [1]; first compound 0.007 µg/mL, partner 8 µg/mL
  fitness: 0.949
S. pneumoniae D39V [1]; first compound 0.0078 µg/mL, partner 1.285 µg/mL
  fitness: 0.957
S. pneumoniae D39V [1]; first compound 0.0078 µg/mL, partner 2.57 µg/mL
  fitness: 0.962
S. pneumoniae D39V [1]; first compound 0.0078 µg/mL, partner 5.14 µg/mL, one replicate
  fitness: 0.959
S. pneumoniae D39V [1]; first compound 0.014 µg/mL, partner 2 µg/mL
  fitness: 0.979
S. pneumoniae D39V [1]; first compound 0.014 µg/mL, partner 4 µg/mL
  fitness: 0.955
S. pneumoniae D39V [1]; first compound 0.014 µg/mL, partner 8 µg/mL
  fitness: 0.927
S. pneumoniae D39V [1]; first compound 0.0155 µg/mL, partner 1.285 µg/mL
  fitness: 0.943
S. pneumoniae D39V [1]; first compound 0.0155 µg/mL, partner 2.57 µg/mL
  fitness: 0.942
S. pneumoniae D39V [1]; first compound 0.0155 µg/mL, partner 5.14 µg/mL, one replicate
  fitness: 0.993
S. pneumoniae D39V [1]; first compound 0.028 µg/mL, partner 2 µg/mL
  fitness: 0.912
S. pneumoniae D39V [1]; first compound 0.028 µg/mL, partner 4 µg/mL
  fitness: 0.887
S. pneumoniae D39V [1]; first compound 0.028 µg/mL, partner 8 µg/mL
  fitness: 0.843
S. pneumoniae D39V [1]; first compound 0.031 µg/mL, partner 1.285 µg/mL
  fitness: 0.811
S. pneumoniae D39V [1]; first compound 0.031 µg/mL, partner 2.57 µg/mL
  fitness: 0.738
S. pneumoniae D39V [1]; first compound 0.031 µg/mL, partner 5.14 µg/mL, one replicate
  fitness: 0.825
B. subtilis 168
  Bliss interaction score: -0.125
S. aureus DSM 20231
  Bliss interaction score: 0.0422
S. pneumoniae D39V [2]
  Bliss interaction score: 0.188
S. aureus Newman
  Bliss interaction score: 0.0549

From the supplement of paper PMC10627819
